Patent US10670605B2, “Cysteine reactive probes and uses thereof” (The Scripps Research Institute, priority 2015, dated 2020)
One block for each molecule: values may come before it.

Columns and labels:
Experiment in all cases: Competitive isoTOP-ABPP in situ (fragment-treated cells)
Type in all cases: cell-based
[1] = target: cysteines in MDA-MB-231 and Ramos cells (Homo sapiens, UniProt Q15365)
[2] = target: T1, cysteines in MDA-MB-231 and Ramos cells (Homo sapiens, UniProt Q96HE7)
T1 sequence (Q96HE7 24-468): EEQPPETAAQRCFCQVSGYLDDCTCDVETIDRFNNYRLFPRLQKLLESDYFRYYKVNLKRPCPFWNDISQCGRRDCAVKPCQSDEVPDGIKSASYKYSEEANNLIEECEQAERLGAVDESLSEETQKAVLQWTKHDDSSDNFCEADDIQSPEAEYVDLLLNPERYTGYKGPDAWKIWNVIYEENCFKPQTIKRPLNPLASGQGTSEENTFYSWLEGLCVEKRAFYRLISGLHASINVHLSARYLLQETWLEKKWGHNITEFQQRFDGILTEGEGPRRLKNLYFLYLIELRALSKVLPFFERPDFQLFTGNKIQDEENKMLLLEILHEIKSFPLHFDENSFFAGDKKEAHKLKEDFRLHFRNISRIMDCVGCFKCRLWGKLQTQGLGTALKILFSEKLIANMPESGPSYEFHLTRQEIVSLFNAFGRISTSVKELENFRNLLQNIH

[3] = target: cysteines in MDA-MB-231 and Ramos cells (Homo sapiens, UniProt Q13526)
cysteines in MDA-MB-231 and Ramos cells (Homo sapiens, UniProt Q13526), sequence (Q13526 whole entry): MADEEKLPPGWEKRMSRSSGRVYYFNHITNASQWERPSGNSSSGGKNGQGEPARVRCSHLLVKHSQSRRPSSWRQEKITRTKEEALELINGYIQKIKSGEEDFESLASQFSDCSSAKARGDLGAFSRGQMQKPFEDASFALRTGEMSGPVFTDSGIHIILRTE

[4] = target: cysteines in MDA-MB-231 and Ramos cells (Homo sapiens, UniProt O00299)
[5] = target: T2, cysteines in MDA-MB-231 and Ramos cells (Homo sapiens, UniProt Q9NYL9)
T2 sequence (Q9NYL9 1-352): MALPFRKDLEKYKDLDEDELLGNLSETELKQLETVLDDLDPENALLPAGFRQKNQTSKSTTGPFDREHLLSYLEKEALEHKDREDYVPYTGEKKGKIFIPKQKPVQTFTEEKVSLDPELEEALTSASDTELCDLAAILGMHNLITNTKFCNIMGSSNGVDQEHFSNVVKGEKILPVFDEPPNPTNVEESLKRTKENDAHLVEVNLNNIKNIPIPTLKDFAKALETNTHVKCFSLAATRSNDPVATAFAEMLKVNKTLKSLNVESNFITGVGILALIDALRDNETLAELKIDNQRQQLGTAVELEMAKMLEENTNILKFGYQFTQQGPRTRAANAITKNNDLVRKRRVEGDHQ

[6] = target: T3, cysteines in MDA-MB-231 and Ramos cells (Homo sapiens, UniProt Q9UKF6)
T3 sequence (Q9UKF6 1-684): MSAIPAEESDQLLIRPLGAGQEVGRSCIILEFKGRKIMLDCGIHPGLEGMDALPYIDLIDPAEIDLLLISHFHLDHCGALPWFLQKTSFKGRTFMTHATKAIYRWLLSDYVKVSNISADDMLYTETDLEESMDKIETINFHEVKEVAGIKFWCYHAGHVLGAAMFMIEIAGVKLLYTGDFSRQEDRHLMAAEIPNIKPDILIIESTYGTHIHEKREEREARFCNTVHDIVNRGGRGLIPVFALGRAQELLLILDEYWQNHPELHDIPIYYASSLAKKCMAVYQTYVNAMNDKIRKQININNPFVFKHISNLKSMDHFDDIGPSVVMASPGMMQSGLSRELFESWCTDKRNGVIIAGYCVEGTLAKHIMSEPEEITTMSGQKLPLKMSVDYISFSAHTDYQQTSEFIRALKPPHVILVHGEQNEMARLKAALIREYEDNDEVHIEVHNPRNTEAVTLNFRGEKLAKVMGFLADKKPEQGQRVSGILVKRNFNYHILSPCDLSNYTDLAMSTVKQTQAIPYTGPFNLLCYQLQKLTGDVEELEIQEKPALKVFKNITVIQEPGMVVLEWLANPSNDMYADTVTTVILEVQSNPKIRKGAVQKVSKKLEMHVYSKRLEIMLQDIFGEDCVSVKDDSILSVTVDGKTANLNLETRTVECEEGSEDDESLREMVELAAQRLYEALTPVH

[7] = target: T4, cysteines in MDA-MB-231 and Ramos cells (Homo sapiens, UniProt Q96CM8)
T4 sequence (Q96CM8 42-615): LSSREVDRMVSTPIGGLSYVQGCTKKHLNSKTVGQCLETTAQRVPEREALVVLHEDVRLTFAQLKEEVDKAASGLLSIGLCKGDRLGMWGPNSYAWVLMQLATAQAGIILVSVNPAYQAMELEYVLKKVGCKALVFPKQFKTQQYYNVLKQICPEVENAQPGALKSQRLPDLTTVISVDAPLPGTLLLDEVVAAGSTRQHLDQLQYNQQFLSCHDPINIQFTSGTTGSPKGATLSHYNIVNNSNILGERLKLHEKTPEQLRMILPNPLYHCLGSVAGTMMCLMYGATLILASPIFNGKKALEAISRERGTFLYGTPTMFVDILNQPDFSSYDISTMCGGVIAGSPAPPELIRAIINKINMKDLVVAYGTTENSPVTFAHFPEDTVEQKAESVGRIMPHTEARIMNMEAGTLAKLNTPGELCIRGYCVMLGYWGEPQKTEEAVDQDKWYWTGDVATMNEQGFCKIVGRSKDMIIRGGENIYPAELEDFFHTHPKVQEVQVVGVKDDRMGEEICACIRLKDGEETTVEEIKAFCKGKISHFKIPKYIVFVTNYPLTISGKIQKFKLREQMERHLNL

[8] = target: T5, cysteines in MDA-MB-231 and Ramos cells (Homo sapiens, UniProt P23919)
T5 sequence (P23919 1-212): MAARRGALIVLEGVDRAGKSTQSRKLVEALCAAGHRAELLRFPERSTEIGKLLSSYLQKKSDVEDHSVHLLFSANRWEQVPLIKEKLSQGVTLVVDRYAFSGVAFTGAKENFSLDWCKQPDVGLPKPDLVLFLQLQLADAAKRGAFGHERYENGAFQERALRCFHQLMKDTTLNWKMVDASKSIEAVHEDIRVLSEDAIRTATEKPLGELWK

cysteines in MDA-MB-231 and Ramos cells (Homo sapiens, UniProt Q15365), sequence (Q15365 whole entry): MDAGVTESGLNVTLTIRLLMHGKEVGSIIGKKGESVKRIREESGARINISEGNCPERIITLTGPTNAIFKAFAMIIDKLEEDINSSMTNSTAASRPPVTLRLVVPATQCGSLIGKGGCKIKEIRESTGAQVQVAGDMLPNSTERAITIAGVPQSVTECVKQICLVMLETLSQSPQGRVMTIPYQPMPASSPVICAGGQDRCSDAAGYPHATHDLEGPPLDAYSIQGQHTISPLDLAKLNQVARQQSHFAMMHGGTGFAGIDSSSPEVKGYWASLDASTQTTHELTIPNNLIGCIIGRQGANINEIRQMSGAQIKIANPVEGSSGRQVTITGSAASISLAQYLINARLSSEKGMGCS

isoTOP-ABPP reactivity Q15365_C194 PCBP1 ([1]; 200 μM, insitu, 231): 5.1 | isoTOP-ABPP reactivity Q96HE7_C241 ERO1L ([2]; 200 μM, insitu, 231): 2.4 | isoTOP-ABPP reactivity Q13526_C113 PIN1 ([3]; 200 μM, insitu, 231): 20.0 | isoTOP-ABPP reactivity O00299_C24 CLIC1 ([4]; 200 μM, insitu, 231): 9.5 | isoTOP-ABPP reactivity Q9NYL9_C132 TMOD3 ([5]; 200 μM, insitu, 231): 2.2 | isoTOP-ABPP reactivity Q9UKF6_C498 CPSF3 ([6]; 200 μM, insitu, 231): 6.2 | isoTOP-ABPP reactivity Q96CM8_C64 ACSF2 ([7]; 200 μM, insitu, 231): 20.0
SMILES: COc1ccc2c(c1)CCCN2C(=O)CCl [compound 2]

isoTOP-ABPP reactivity Q15365_C194 PCBP1 ([1]; 100 μM in situ 231): 1.4 | isoTOP-ABPP reactivity Q96HE7_C37 ERO1L ([2]; 100 μM in situ 231): 5.4 | isoTOP-ABPP reactivity Q96HE7_C241 ERO1L ([2]; 100 μM in situ 231): 3.0 | isoTOP-ABPP reactivity Q13526_C113 PIN1 ([3]; 100 μM in situ 231): 3.4 | isoTOP-ABPP reactivity P23919_C163 DTYMK ([8]; 100 μM in situ 231): 0.4 | isoTOP-ABPP reactivity O00299_C24 CLIC1 ([4]; 100 μM in situ 231): 20.0 | isoTOP-ABPP reactivity Q9NYL9_C132 TMOD3 ([5]; 100 μM in situ 231): 0.8 | isoTOP-ABPP reactivity Q9UKF6_C498 CPSF3 ([6]; 100 μM in situ 231): 3.5 | isoTOP-ABPP reactivity Q96CM8_C64 ACSF2 ([7]; 100 μM in situ 231): 20.0
SMILES: COc1ccc(C2CC(c3cccs3)=NN2C(=O)CCl)cc1 (stereo not drawn) [compound 4]

isoTOP-ABPP reactivity Q15365_C194 PCBP1 ([1]; 200 μM, insitu, 231): 1.4 | isoTOP-ABPP reactivity Q96HE7_C241 ERO1L ([2]; 200 μM, insitu, 231): 3.7 | isoTOP-ABPP reactivity Q13526_C113 PIN1 ([3]; 200 μM, insitu, 231): 2.6 | isoTOP-ABPP reactivity P23919_C117 DTYMK ([8]; 200 μM, insitu, 231): 0.4 | isoTOP-ABPP reactivity P23919_C163 DTYMK ([8]; 200 μM, insitu, 231): 0.6 | isoTOP-ABPP reactivity O00299_C24 CLIC1 ([4]; 200 μM, insitu, 231): 10.3 | isoTOP-ABPP reactivity Q9NYL9_C132 TMOD3 ([5]; 200 μM, insitu, 231): 0.9 | isoTOP-ABPP reactivity Q9UKF6_C498 CPSF3 ([6]; 200 μM, insitu, 231): 20.0 | isoTOP-ABPP reactivity Q96CM8_C64 ACSF2 ([7]; 200 μM, insitu, 231): 20.0
SMILES: COc1cc2c(cc1OC)CN(C(=O)CCl)CC2 [compound 8]

isoTOP-ABPP reactivity Q15365_C194 PCBP1 ([1]; 200 μM, insitu, 231): 10.1 | isoTOP-ABPP reactivity Q96HE7_C37 ERO1L ([2]; 200 μM, insitu, 231): 20.0 | isoTOP-ABPP reactivity Q13526_C113 PIN1 ([3]; 200 μM, insitu, 231): 3.3 | isoTOP-ABPP reactivity P23919_C117 DTYMK ([8]; 200 μM, insitu, 231): 7.3 | isoTOP-ABPP reactivity O00299_C24 CLIC1 ([4]; 200 μM, insitu, 231): 3.0 | isoTOP-ABPP reactivity Q9NYL9_C132 TMOD3 ([5]; 200 μM, insitu, 231): 7.6
SMILES: O=C(CCl)N1CCC(Cc2ccccc2)CC1 [compound 9]

isoTOP-ABPP ratio Q15365_C194 ([1]; 200 μM, insitu, 231): 1.6 | isoTOP-ABPP ratio Q15365_C194 ([1]; 200 μM, insitu, ramos): 2.0 | isoTOP-ABPP ratio Q96HE7_C241 ([2]; 200 μM, insitu, 231): 2.0 | isoTOP-ABPP ratio Q13526_C113 ([3]; 200 μM, insitu, 231): 2.0 | isoTOP-ABPP ratio Q13526_C113 ([3]; 200 μM, insitu, ramos): 1.3 | isoTOP-ABPP ratio, cysteine P23919_C117 ([8]; 200 μM, insitu, 231): 0.4 | isoTOP-ABPP ratio O00299_C24 ([4]; 200 μM, insitu, 231): 5.0 | isoTOP-ABPP ratio Q9UKF6_C498 ([6]; 200 μM, insitu, 231): 20.0 | isoTOP-ABPP ratio Q9UKF6_C498 ([6]; 200 μM, insitu, ramos): 2.8 | isoTOP-ABPP ratio Q96CM8_C64 ([7]; 200 μM, insitu, 231): 20.0
SMILES: O=C(CCl)N1CCN(S(=O)(=O)c2ccccc2F)CC1 [compound 10]

isoTOP-ABPP ratio Q15365_C194 ([1]; 100 μM in situ 231): 0.4 | isoTOP-ABPP ratio Q96HE7_C241 ([2]; 100 μM in situ 231): 1.8 | isoTOP-ABPP ratio Q13526_C113 ([3]; 100 μM in situ 231): 0.7 | isoTOP-ABPP ratio, cysteine P23919_C163 ([8]; 100 μM in situ 231): 0.2 | isoTOP-ABPP ratio O00299_C24 ([4]; 100 μM in situ 231): 2.5 | isoTOP-ABPP ratio Q9NYL9_C132 ([5]; 100 μM in situ 231): 0.5 | isoTOP-ABPP ratio Q9UKF6_C498 ([6]; 100 μM in situ 231): 1.3 | isoTOP-ABPP ratio Q96CM8_C64 ([7]; 100 μM in situ 231): 1.5
SMILES: Cn1cc(S(=O)(=O)N2CCOCC2)cc1C(=O)NC(=O)CCl [compound 11]

isoTOP-ABPP ratio Q15365_C194 ([1]; 200 μM, insitu, 231): 1.3 | isoTOP-ABPP ratio Q96HE7_C241 ([2]; 200 μM, insitu, 231): 16.4 | isoTOP-ABPP ratio Q13526_C113 ([3]; 200 μM, insitu, 231): 0.6 | isoTOP-ABPP ratio, cysteine P23919_C117 ([8]; 200 μM, insitu, 231): 0.2 | isoTOP-ABPP ratio O00299_C24 ([4]; 200 μM, insitu, 231): 20.0 | isoTOP-ABPP ratio Q9NYL9_C132 ([5]; 200 μM, insitu, 231): 0.6 | isoTOP-ABPP ratio Q9UKF6_C498 ([6]; 200 μM, insitu, 231): 4.1 | isoTOP-ABPP ratio Q96CM8_C64 ([7]; 200 μM, insitu, 231): 17.9
SMILES: O=C(CCl)NC(=O)NC12CC3CC(CC(C3)C1)C2 [compound 12]
